Assay results reported in PubChem BioAssay AID328 (DTP/NCI, 2004).
“And” between values parts separate entries of the source, which are not always exact repeats. Equal entries are not always repeated. Toxic doses and inconclusive results are not listed.

Tested on: BDF1 mice, P388 leukemia ip, median survival T/C
Experiment: NCI In Vivo Anticancer Drug Screen. Data for tumor model P388 Leukemia (intraperitoneal) in B6D2F1 (BDF1) mice
Conditions: endpoint: median survival time, higher = longer survival
In short: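 Transplantable tumour in mice; compound vs vehicle dosing; survival scored; ratio of treated to control reported.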

[1] = dose: 50.0 mg/kg/injection, schedule: Q04DX003 (ip), vehicle: saline with Tween-80
[2] = dose: 100.0 mg/kg/injection, schedule: Q01DX009 (ip), vehicle: saline with Tween-80
[3] = dose: 200.0 mg/kg/injection, schedule: Q01DX009 (ip), vehicle: saline with Tween-80
[4] = dose: 400.0 mg/kg/injection, schedule: Q01DX009 (ip), vehicle: saline with Tween-80
[5] = dose: 25.0 mg/kg/injection, schedule: Q01DX009 (ip), vehicle: saline
[6] = dose: 50.0 mg/kg/injection, schedule: Q01DX009 (ip), vehicle: saline
[7] = dose: 50.0 mg/kg/injection, schedule: Q01DX009 (ip), vehicle: saline with Tween-80
[8] = dose: 100.0 mg/kg/injection, schedule: Q04DX003 (ip), vehicle: saline with Tween-80

O=C(N/N=C/c1ccc2c(c1)CCC2)c1ccccc1
T/C (dose: 25.0 mg/kg/injection, schedule: Q04DX003 (ip), vehicle: Klucel (hydroxypropylcellulose) (HPC)): 100 % of control
T/C (dose: 50.0 mg/kg/injection, schedule: Q04DX003 (ip), vehicle: Klucel (hydroxypropylcellulose) (HPC)): 96 % of control
T/C (dose: 100.0 mg/kg/injection, schedule: Q04DX003 (ip), vehicle: Klucel (hydroxypropylcellulose) (HPC)): 94 % of control
T/C (dose: 200.0 mg/kg/injection, schedule: Q04DX003 (ip), vehicle: Klucel (hydroxypropylcellulose) (HPC)): 100 % of control

C=CC[N+](CC=C)(CC=C)CC[N+](CC=C)(CC=C)CC=C
T/C (dose: 12.5 mg/kg/injection, schedule: Q01DX009 (ip), vehicle: water): 102 % of control
T/C (dose: 12.5 mg/kg/injection, schedule: Q04DX003 (ip), vehicle: saline with Tween-80): 104 % of control
T/C (dose: 25.0 mg/kg/injection, schedule: Q01DX009 (ip), vehicle: water): 105 % of control
T/C (dose: 25.0 mg/kg/injection, schedule: Q04DX003 (ip), vehicle: saline with Tween-80): 104 % of control
T/C (dose: 50.0 mg/kg/injection, schedule: Q01DX009 (ip), vehicle: water): 115 % of control
T/C [1]: 101 % of control

Cc1ccc2c(c1)C(c1ccccc1)(c1ccccc1)OC2=O
T/C [2]: 100 % of control
T/C [3]: 90 % of control
T/C [4]: 100 % of control

O=C(Nc1ccc(CCNC2=NCCN2)cc1)c1ccc(C(=O)Nc2ccc(CCNC3=NCCN3)cc2)cc1
T/C (dose: 1.0 mg/kg/injection, schedule: Q01DX009 (ip), vehicle: saline): 106 % of control
T/C (dose: 2.0 mg/kg/injection, schedule: Q01DX009 (ip), vehicle: saline): 106 % of control
T/C (dose: 8.2 mg/kg/injection, schedule: Q01DX009 (ip), vehicle: saline): 199 % of control
T/C (dose: 12.5 mg/kg/injection, schedule: Q01DX009 (ip), vehicle: saline): 226 % of control and 254 % of control
T/C (dose: 18.0 mg/kg/injection, schedule: Q01DX009 (ip), vehicle: saline): 226 % of control
T/C [5]: 156 % of control
T/C [6]: 122 % of control

CS(=O)(=O)OCCN(Cc1ccc(OS(C)(=O)=O)cc1)S(C)(=O)=O
T/C [7]: 102 % of control
T/C [2]: 103 % of control
T/C [8]: 107 % of control
T/C [3]: 110 % of control
T/C (dose: 200.0 mg/kg/injection, schedule: Q04DX003 (ip), vehicle: saline with Tween-80): 109 % of control
T/C [4]: 94 % of control
T/C (dose: 400.0 mg/kg/injection, schedule: Q04DX003 (ip), vehicle: saline with Tween-80): 111 % of control

CCOC(=O)c1cc(C(=O)OCC)c(=O)oc1OCC
T/C [5]: 118 % of control
T/C [6]: 104 % of control
T/C (dose: 100.0 mg/kg/injection, schedule: Q01DX009 (ip), vehicle: saline): 118 % of control

CCC1OC(=O)CC(O)C(C)C(OC2OC(C)C(O)C(N(C)C)C2O)C(CC=O)CC(C)C(=O)/C=C/C2(C)OC2C1C (stereo not drawn)
T/C (dose: 150.0 mg/kg/injection, schedule: Q01DX009 (ip), vehicle: Klucel (hydroxypropylcellulose) (HPC)): 92 % of control

CC(CO)(CI)[n+]1ccccc1 (stereo not drawn)
T/C (dose: 25.0 mg/kg/injection, schedule: Q01DX009 (ip), vehicle: saline with Tween-80): 103 % of control
T/C [7]: 107 % of control
T/C [1]: 95 % of control
T/C [8]: 100 % of control

C/C=C1\C(=O)OC23C=CC4C(C(=O)OC)C(O)OC(OC12)C43 (stereo not drawn)
T/C (dose: 0.04 mg/kg/injection, schedule: Q01DX009 (ip), vehicle: saline): 95 % of control
T/C (dose: 0.2 mg/kg/injection, schedule: Q01DX009 (ip), vehicle: saline): 100 % of control
T/C (dose: 1.0 mg/kg/injection, schedule: Q01DX009 (ip), vehicle: saline + alcohol): 110 % of control

COc1cccc2c1C(=O)c1c(O)c3c(c(O)c1C2=O)C[C@@](O)(C(=O)CO)C[C@@H]3OC1CC(NC(=O)CN)C(O)C(C)O1 (stereo partly drawn)
T/C (dose: 1.56 mg/kg/injection, schedule: Q01DX009 (ip), vehicle: other): 108 % of control
T/C (dose: 3.13 mg/kg/injection, schedule: Q01DX009 (ip), vehicle: other): 110 % of control
T/C (dose: 6.25 mg/kg/injection, schedule: Q01DX009 (ip), vehicle: other): 105 % of control
T/C (dose: 12.5 mg/kg/injection, schedule: Q01DX009 (ip), vehicle: other): 99 % of control
T/C (dose: 25.0 mg/kg/injection, schedule: Q01DX009 (ip), vehicle: other): 114 % of control
